According to patent US10287266B2, “Compounds and compositions for inhibiting the activity of SHP2” (NOVARTIS AG, priority 2015, dated 2019):

Target: T1, SHP2 (Homo sapiens, UniProt Q06124)
T1 sequence (Q06124 1-593): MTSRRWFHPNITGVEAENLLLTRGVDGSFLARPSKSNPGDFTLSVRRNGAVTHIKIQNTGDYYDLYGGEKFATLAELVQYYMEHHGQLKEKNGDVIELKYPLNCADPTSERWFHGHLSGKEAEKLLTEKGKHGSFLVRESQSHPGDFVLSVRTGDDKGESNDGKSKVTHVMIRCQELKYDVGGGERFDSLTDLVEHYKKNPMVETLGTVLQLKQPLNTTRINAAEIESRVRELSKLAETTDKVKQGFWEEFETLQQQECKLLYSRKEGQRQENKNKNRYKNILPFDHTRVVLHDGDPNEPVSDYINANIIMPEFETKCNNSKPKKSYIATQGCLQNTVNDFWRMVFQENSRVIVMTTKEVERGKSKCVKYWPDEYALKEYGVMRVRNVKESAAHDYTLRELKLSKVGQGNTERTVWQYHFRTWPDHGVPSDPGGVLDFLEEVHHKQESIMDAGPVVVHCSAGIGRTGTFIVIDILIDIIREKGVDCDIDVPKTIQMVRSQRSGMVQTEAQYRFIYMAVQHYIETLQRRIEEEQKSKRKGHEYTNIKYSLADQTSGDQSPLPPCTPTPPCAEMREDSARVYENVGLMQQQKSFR
Test: SHP2 Allosteric Inhibition Assay
Assay type: biochemical
Conditions: 0.5 nM SHP2 activated with 0.5 μM peptide IRS1_pY1172(dPEG8)pY1222; surrogate substrate DiFMUP, prompt fluorescence, 25° C.
Text: SHP2 Allosteric Inhibition Assay
SHP2 is allosterically activated through binding of bis-tyrosyl-phorphorylated peptides to its Src Homology 2 (SH2) domains. The latter activation step leads to the release of the auto-inhibitory interface of SHP2, which in turn renders the SHP2 protein tyrosine phosphatase (PTP) active and available for substrate recognition and reaction catalysis. The catalytic activity of SHP2 was monitored using the surrogate substrate DiFMUP in a prompt fluorescence assay format.
After 30-60 minutes incubation at 25° C., the surrogate substrate DiFMUP (Invitrogen, cat# D6567) was added to the reaction and incubated at 25° C. for 30 minutes. […] The inhibitor dose response curves were analyzed using normalized IC50 regression curve fitting with control based normalization.

SMILES	AC50
N[C@@H]1CCCC12CCN(c1cnc(Sc3ccccc3Cl)cn1)CC2 [Example 73]	17.3 nM
COc1cccc(Sc2cnc(N3CCC4(CCC[C@H]4N)CC3)cn2)c1 [Example 74]	37.6 nM
N[C@@H]1CCCC12CCN(c1cnc(Sc3cccc(F)c3F)cn1)CC2 [Example 75]	97.7 nM
N[C@@H]1CCCC12CCN(c1cnc(Sc3cccc(Cl)c3)cn1)CC2 [Example 77]	279 nM
N[C@@H]1CCCC12CCN(c1cnc(Sc3cccc(O)c3)cn1)CC2 [Example 78]	31.8 nM
Nc1cccc(Sc2cnc(N3CCC4(CCC[C@H]4N)CC3)cn2)c1 [Example 79]	31.4 nM
N#Cc1cccc(Sc2cnc(N3CCC4(CCC[C@H]4N)CC3)cn2)c1 [Example 80]	210 nM
N[C@@H]1CCCC12CCN(c1cnc(Sc3cccc(CO)c3)cn1)CC2 [Example 81]	54.8 nM
N[C@@H]1CCCC12CCN(c1cnc(Sc3cccc(Br)c3)cn1)CC2 [Example 82]	81.1 nM
CCOc1cccc(Sc2cnc(N3CCC4(CCC[C@H]4N)CC3)cn2)c1 [Example 83]	78.1 nM
N[C@@H]1CCCC12CCN(c1cnc(Sc3cccc(C4CC4)c3)cn1)CC2 [Example 84]	33.9 nM
N[C@@H]1CCCC12CCN(c1cnc(Sc3cccc(C(F)(F)F)c3)cn1)CC2 [Example 85]	52.8 nM
N[C@@H]1CCCC12CCN(c1cnc(Sc3ccc(C(F)(F)F)cc3)cn1)CC2 [Example 87]	235 nM
N[C@@H]1CCCC12CCN(c1cnc(Sc3ccc(OC(F)(F)F)cc3)cn1)CC2 [Example 88]	82.3 nM
N[C@@H]1CCCC12CCN(c1cnc(Sc3ccncc3)cn1)CC2 [Example 89]	107 nM
N[C@@H]1CCCC12CCN(c1cnc(Sc3ccc(Br)c(Cl)c3)cn1)CC2 [Example 91]	666 nM
N[C@@H]1CCCC12CCN(c1cnc(Sc3cccc(F)c3Cl)cn1)CC2 [Example 92]	5.77 nM
N[C@@H]1CCCC12CCN(c1cnc(Sc3cccc(Cl)c3F)cn1)CC2 [Example 93]	89.3 nM
N[C@@H]1CCCC12CCN(c1cnc(Sc3cccc(CN4CCOCC4)c3)cn1)CC2 [Example 94]	39 nM
N[C@@H]1CCCC12CCN(c1cnc(Sc3ccncc3F)cn1)CC2 [Example 95]	159 nM
N[C@@H]1CCCC12CCN(c1cnc(Sc3cccc(NC(=O)C4CC4)c3)cn1)CC2 [Example 96]	77.7 nM
N[C@@H]1CCCC12CCN(c1cnc(Sc3ccnc4c3CCC4)cn1)CC2 [Example 97]	29.3 nM
Cc1c(Sc2cnc(N3CCC4(CCC[C@H]4N)CC3)cn2)cccc1C(F)(F)F [Example 98]	293 nM
N[C@@H]1CCCC12CCN(c1cnc(Sc3ccnc(F)c3Cl)cn1)CC2 [Example 99]	43.9 nM
N[C@@H]1CCCC12CCN(c1cnc(Sc3ccc(F)cc3F)cn1)CC2 [Example 100]	151 nM
N[C@@H]1CCCC12CCN(c1cnc(Sc3c(F)c(F)cc(F)c3F)cn1)CC2 [Example 101]	2510 nM

SMILES	AC50
N[C@@H]1CCCC12CCN(c1cnc(Sc3cccc(S(F)(F)(F)(F)F)c3)cn1)CC2 [Example 102]	436 nM
N[C@@H]1CCCC12CCN(c1cnc(Sc3cc[nH]c(=O)c3Cl)cn1)CC2 [Example 105]	78.9 nM
N[C@@H]1CCCC12CCN(c1cnc(Sc3cccnc3)cn1)CC2 [Example 106]	11300 nM
N[C@@H]1CCCC12CCN(c1cnc(Sc3cccc(Cl)c3Cl)cn1)CC2 [Example 107]	74 nM
C[C@@H]1OCC2(CCN(c3cnc(Sc4ccccc4)cn3)CC2)[C@@H]1N [Example 108]	52 nM
C[C@@H]1OCC2(CCN(c3cnc(Sc4cc[nH]c(=O)c4Cl)cn3)CC2)[C@@H]1N [Example 109]	28.8 nM
C[C@@H]1OCC2(CCN(c3cnc(Sc4ccnc(F)c4Cl)cn3)CC2)[C@@H]1N [Example 111]	44.1 nM
C[C@@H]1OCC2(CCN(c3cnc(Sc4ccncc4F)cn3)CC2)[C@@H]1N [Example 113]	34.8 nM
C[C@@H]1OCC2(CCN(c3cnc(Sc4ccnc(F)c4)cn3)CC2)[C@@H]1N [Example 114]	120 nM
C[C@@H]1OCC2(CCN(c3cnc(Sc4ccnc(N)c4Cl)cn3)CC2)[C@@H]1N [Example 115]	24.7 nM
C[C@@H]1OCC2(CCN(c3cnc(Sc4cccc(CO)c4)cn3)CC2)[C@@H]1N [Example 117]	45.1 nM
C[C@@H]1OCC2(CCN(c3cnc(Sc4cccc(O)c4)cn3)CC2)[C@@H]1N [Example 118]	57 nM
CC(=O)c1cccc(Sc2cnc(N3CCC4(CCC[C@H]4N)CC3)cn2)c1 [Example 119]	138 nM
Cc1ccccc1Sc1cnc(N2CCC3(CCC[C@H]3N)CC2)cn1 [Example 121]	44.9 nM
C[C@@H]1OCC2(CCN(c3cnc(Sc4ccnc(C(F)(F)F)c4)cn3)CC2)[C@@H]1N [Example 122]	18.5 nM
Cc1cccc(Sc2cnc(N3CCC4(CCC[C@@H]4N)CC3)cn2)c1 [Example 123]	75.8 nM
CC(C)c1ccccc1Sc1cnc(N2CCC3(CCC[C@@H]3N)CC2)cn1 [Example 124]	98 nM
CCc1ccccc1Sc1cnc(N2CCC3(CCC[C@@H]3N)CC2)cn1 [Example 125]	101 nM
N[C@H]1CCCC12CCN(c1cnc(Sc3ccccc3OC(F)(F)F)cn1)CC2 [Example 126]	130 nM
CC(C)(C)c1cccc(Sc2cnc(N3CCC4(CCC[C@@H]4N)CC3)cn2)c1 [Example 127]	44.9 nM
CCc1ccc(Sc2cnc(N3CCC4(CCC[C@@H]4N)CC3)cn2)cc1 [Example 128]	287 nM
CCc1cccc(Sc2cnc(N3CCC4(CCC[C@H]4N)CC3)cn2)c1 [Example 129]	526 nM
N[C@H]1CCCC12CCN(c1cnc(Sc3ccccc3)cn1)CC2 [Example 130]	621 nM
CC(C)(C)c1ccccc1Sc1cnc(N2CCC3(CCC[C@@H]3N)CC2)cn1 [Example 131]	1460 nM
CC(C)(C)c1ccc(Sc2cnc(N3CCC4(CCC[C@@H]4N)CC3)cn2)cc1 [Example 132]	1960 nM
Nc1nccc(Sc2cnc(N3CCC4(CCC(CO)[C@H]4N)CC3)cn2)c1Cl (stereo partly shown) [Example 133]	14.6 nM
